{
  "source": "paper PMC9866367",
  "about": "(Journal of medicinal chemistry, 2022)",
  "key": {"[1]": {"molecular_target": "T1, purified human sAC protein (Homo sapiens, UniProt Q96PN6)", "T1 sequence (Q96PN6 1-469)": "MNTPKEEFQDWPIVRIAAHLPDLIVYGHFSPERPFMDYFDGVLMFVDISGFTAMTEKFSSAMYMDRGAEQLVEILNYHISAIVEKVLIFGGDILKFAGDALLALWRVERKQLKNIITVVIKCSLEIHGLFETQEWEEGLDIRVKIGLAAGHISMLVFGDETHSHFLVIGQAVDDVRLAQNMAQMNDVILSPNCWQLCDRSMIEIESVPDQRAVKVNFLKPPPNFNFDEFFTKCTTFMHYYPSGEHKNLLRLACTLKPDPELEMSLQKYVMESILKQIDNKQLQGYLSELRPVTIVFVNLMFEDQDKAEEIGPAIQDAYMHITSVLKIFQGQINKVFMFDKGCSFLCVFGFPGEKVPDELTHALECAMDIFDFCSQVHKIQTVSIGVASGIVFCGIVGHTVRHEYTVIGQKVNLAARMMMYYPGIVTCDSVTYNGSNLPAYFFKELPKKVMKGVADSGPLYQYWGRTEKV", "assay": "In vitro cyclase activity assay", "type": "biochemical"}, "[2]": {"molecular_target": "T2, recombinant purified His-tagged sACt protein (Homo sapiens, UniProt Q96PN6)", "T2 sequence (Q96PN6 1-469 limits assumed)": "T1 sequence (Q96PN6 1-469)", "assay": "Binding kinetics via surface plasmon resonance", "conditions": "read-out: SPR Residence Time"}, "[3]": {"test_system": "46 other relevant drug targets such as GPCRs, ion channels, and nuclear receptors", "assay": "Eurofins safety panel", "conditions": "Table S3"}, "[4]": {"conditions": "50 mg/kg IP, male mice, 1 h post-dosing; cited from earlier work"}, "[5]": {"assay": "In vivo pharmacokinetic analysis in mice", "set-up": "species or system male CD-1 mice"}, "[6]": {"assay": "Cytotoxicity", "type": "cell-based"}, "[7]": {"assay": "GSH", "type": "in vitro ADME", "conditions": "5 μM compound, 5 mM GSH, up to 2 h"}, "[8]": {"test_system": "panel of 322 kinases", "assay": "Kinase panel", "type": "biochemical", "conditions": "Table S2"}, "[9]": {"conditions": "male, CD-1, mouse, plasma, iv, 2 mg/kg"}},
  "data": [
    {"smiles": "CN(C)C(=O)c1ccccc1Cc1cn(C)nc1-c1cc(Cl)nc(N)n1", "note": "[Compound 14]", "values": [
      {"measurement": "biochemical activity in words", "setting": "[1]", "result": "almost inactive"}
    ]},
    {"smiles": "Nc1nc(Cl)cc(-c2nn(C(F)F)cc2Cc2ccccc2OCC(=O)N2CCOCC2)n1", "note": "[Compound 24]", "values": [
      {"measurement": "residence time", "setting": "[2]", "result": 8.07, "unit": "min"}
    ]},
    {"smiles": "Nc1nc(Cl)cc(-c2nn(C(F)F)cc2Cc2ccccc2OCCN2CCOC[C@H]2CO)n1", "note": "[Compound 33, [(3R)-4-[2-[2-[[3-(2-Amino-6-chloro-pyrimidin-4-yl)-1-(difluoromethyl)pyrazol-4-yl]methyl]phenoxy]ethyl]morpholin-3-yl]methanol]", "values": [
      {"measurement": "activity against 46 other drug targets in Eurofins safety panel", "setting": "[3]", "result": "did not show appreciable activity"},
      {"measurement": "systemic level", "setting": "[4]", "result": 7.04, "unit": "µM"},
      {"measurement": "unbound plasma exposure over cellular IC50 ([…])", "setting": "[5]; 50 mg/kg PO, CD-1 mice, out to 4 h", "result": "~ 10 fold"},
      {"measurement": "AUC(0-t)", "setting": "[5]; [9]", "result": "780 ± 110", "unit": "µM·h"},
      {"measurement": "clearance", "setting": "[5]; [9]", "result": "94 ± 12", "unit": "mL/min/kg"},
      {"measurement": "AUC(0-t)", "setting": "[5]; male, CD-1, mouse, plasma, po, 10 mg/kg", "result": "410 ± 57", "unit": "µM·h"},
      {"measurement": "AUC(0-t)", "setting": "[5]; male, CD-1, mouse, plasma, po, 50 mg/kg", "result": "5460 ± 1500", "unit": "µM·h"},
      {"measurement": "cytotoxicity", "setting": "[6]", "result": ">20", "unit": "µM"},
      {"measurement": "cytotoxicity in words", "setting": "[6]; at 20 μM", "result": "no cytotoxicity"},
      {"measurement": "glutathione reactivity", "setting": "[7]; listed as TDI-11861", "result": "no evidence of adduct formation"},
      {"measurement": "glutathione reactivity", "setting": "[7]; listed as TDI-11861 (33)", "result": "low propensity at 5 μM"},
      {"measurement": "activity against a panel of 322 kinases", "setting": "[8]", "result": "did not show appreciable activity"}
    ]}
  ]
}
